Publication PMC4904262 (ACS Medicinal Chemistry Letters, 2016)

Experiments:
ARG = ARG (Homo sapiens, UniProt P42684); settings: 1 µM, ATP at Km
ASK1 = ASK1 (Homo sapiens, UniProt Q99683); settings: 1 µM, ATP at Km
BMX = BMX (Homo sapiens, UniProt P51813); settings: 1 µM, ATP at Km
CDK1/CYCLINB = CDK1/CYCLINB (Homo sapiens, UniProt P06493); settings: 1 µM, ATP at Km
CDK6/CYCLIND3 = CDK6/CYCLIND3 (Homo sapiens, UniProt Q00534); settings: 1 µM, ATP at Km
CK1DELTA = CK1DELTA (Homo sapiens, UniProt P48730); settings: 1 µM, ATP at Km
CK2 = CK2 (Homo sapiens, UniProt P68400); settings: 1 µM, ATP at Km
EPHA8 = EPHA8 (Homo sapiens, UniProt P29322); settings: 1 µM, ATP at Km
EPHB3 = EPHB3 (Homo sapiens, UniProt P54753); settings: 1 µM, ATP at Km
FGFR2 = FGFR2 (Homo sapiens, UniProt P21802); settings: 1 µM, ATP at Km
HCK = HCK (Homo sapiens, UniProt P08631); settings: HCK (first listing, page 8); 1 µM; ATP at Km
IKKALPHA = IKKALPHA (Homo sapiens, UniProt O15111); settings: 1 µM, ATP at Km
JNK2ALPHA2 = JNK2ALPHA2 (Homo sapiens, UniProt P45984); settings: 1 µM, ATP at Km
MARK1 = MARK1 (Homo sapiens, UniProt Q9P0L2); settings: 1 µM, ATP at Km
MEK1 = MEK1 (Homo sapiens, UniProt Q02750); settings: 1 µM, ATP at Km
MET = MET (Homo sapiens, UniProt P08581); settings: 1 µM, ATP at Km
MNK2 = MNK2 (Homo sapiens, UniProt Q9HBH9); settings: 1 µM, ATP at Km
MRCKBETA = MRCKBETA (Homo sapiens, UniProt Q9Y5S2); settings: 1 µM, ATP at Km
MST1 = MST1 (Homo sapiens, UniProt Q13043); settings: 1 µM, ATP at Km
NEK2 = NEK2 (Homo sapiens, UniProt P51955); settings: 1 µM, ATP at Km
NLK = NLK (Homo sapiens, UniProt Q9UBE8); settings: 1 µM, ATP at Km
PASK = PASK (Homo sapiens, UniProt Q96RG2); settings: 1 µM, ATP at Km
[…] [1] = target: […] (Homo sapiens, UniProt P16234); settings: 1 µM, ATP at Km
PIM-2 = PIM-2 (Homo sapiens, UniProt Q9P1W9); settings: 1 µM, ATP at Km
PKBBETA = PKBBETA (Homo sapiens, UniProt P31751); settings: 1 µM, ATP at Km
PKCGAMMA = PKCGAMMA (Homo sapiens, UniProt P05129); settings: 1 µM, ATP at Km
PKCETA = PKCETA (Homo sapiens, UniProt P24723); settings: 1 µM, ATP at Km
PKD2 = PKD2 (Homo sapiens, UniProt Q9BZL6); settings: 1 µM, ATP at Km
PRKX = PRKX (Homo sapiens, UniProt P51817); settings: 1 µM, ATP at Km
RSK1 = RSK1 (Homo sapiens, UniProt Q15418); settings: 1 µM, ATP at Km
SGK = SGK (Homo sapiens, UniProt O00141); settings: 1 µM, ATP at Km
SGK2 = SGK2 (Homo sapiens, UniProt Q9HBY8); settings: 1 µM, ATP at Km
SIK = SIK (Homo sapiens, UniProt P57059); settings: 1 µM, ATP at Km
SNK = SNK (Homo sapiens, UniProt Q9NYY3); settings: 1 µM, ATP at Km
SRC = SRC (Homo sapiens, UniProt P12931); settings: 1 µM, ATP at Km
SRPK2 = SRPK2 (Homo sapiens, UniProt P78362); settings: 1 µM, ATP at Km
TIE2 = TIE2 (Homo sapiens, UniProt Q02763); settings: 1 µM, ATP at Km
TSSK1 = TSSK1 (Homo sapiens, UniProt Q9BXA7); settings: 1 µM, ATP at Km
[…] [2] = target: […] (Homo sapiens, UniProt Q8IU85); settings: 1 µM, ATP at Km
GCK = GCK (Homo sapiens, UniProt Q12851); settings: 1 µM, ATP at Km
PIM-3 = PIM-3 (Homo sapiens, UniProt Q86V86); settings: 1 µM, ATP at Km
IR, ACTIVATED = IR, ACTIVATED (Homo sapiens, UniProt P06213); settings: 1 µM, ATP at Km
PI3 KINASE (P85A) = PI3 KINASE (P85A) (Homo sapiens, UniProt P42336); settings: 1 µM, ATP at Km
PIP4K2A = PIP4K2A (Homo sapiens, UniProt P48426); settings: 1 µM, ATP at Km

Chain of RSK1 (Q15418 whole entry): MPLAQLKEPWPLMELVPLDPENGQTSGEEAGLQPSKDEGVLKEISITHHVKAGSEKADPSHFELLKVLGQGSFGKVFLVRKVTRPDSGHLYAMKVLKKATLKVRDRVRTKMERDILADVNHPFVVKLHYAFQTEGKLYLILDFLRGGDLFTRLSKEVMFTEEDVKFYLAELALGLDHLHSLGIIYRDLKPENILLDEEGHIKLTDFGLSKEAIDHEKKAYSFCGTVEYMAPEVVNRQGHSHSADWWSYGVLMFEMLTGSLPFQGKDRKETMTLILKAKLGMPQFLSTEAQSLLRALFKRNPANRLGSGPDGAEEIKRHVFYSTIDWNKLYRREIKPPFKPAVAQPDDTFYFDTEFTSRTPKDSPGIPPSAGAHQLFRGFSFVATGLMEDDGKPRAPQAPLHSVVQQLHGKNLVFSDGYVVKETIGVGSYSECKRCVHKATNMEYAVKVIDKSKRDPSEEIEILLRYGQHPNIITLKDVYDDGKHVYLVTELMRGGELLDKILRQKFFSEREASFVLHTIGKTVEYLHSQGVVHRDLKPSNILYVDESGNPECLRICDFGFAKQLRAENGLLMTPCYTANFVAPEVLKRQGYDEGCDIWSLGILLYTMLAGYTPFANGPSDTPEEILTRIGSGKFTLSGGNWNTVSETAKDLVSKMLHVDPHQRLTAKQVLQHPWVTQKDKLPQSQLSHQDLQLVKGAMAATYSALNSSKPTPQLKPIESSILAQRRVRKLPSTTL
Chain of PKD2 (Q9BZL6 whole entry): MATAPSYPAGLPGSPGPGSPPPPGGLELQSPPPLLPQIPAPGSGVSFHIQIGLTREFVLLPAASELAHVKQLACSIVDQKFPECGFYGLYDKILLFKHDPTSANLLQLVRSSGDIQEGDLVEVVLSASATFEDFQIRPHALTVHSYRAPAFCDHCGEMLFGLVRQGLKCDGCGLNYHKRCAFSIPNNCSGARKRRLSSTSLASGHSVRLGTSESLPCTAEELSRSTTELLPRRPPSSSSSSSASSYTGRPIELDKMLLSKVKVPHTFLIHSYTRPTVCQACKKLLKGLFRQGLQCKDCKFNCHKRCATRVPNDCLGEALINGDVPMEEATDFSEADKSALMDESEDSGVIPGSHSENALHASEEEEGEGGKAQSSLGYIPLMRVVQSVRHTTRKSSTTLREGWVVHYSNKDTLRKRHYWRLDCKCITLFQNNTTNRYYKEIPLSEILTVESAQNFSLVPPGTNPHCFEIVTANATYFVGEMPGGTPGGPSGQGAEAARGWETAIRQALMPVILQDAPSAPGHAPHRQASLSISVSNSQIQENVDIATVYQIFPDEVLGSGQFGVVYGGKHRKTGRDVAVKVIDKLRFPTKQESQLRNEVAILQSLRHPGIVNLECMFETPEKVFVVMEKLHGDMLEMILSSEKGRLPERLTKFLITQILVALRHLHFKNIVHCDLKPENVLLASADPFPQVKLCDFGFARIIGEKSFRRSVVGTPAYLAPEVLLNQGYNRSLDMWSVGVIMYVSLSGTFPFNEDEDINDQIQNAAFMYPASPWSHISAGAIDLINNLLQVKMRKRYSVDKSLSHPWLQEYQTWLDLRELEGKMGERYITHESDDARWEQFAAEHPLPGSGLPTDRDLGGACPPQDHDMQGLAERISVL
Chain of MET (P08581 25-1390): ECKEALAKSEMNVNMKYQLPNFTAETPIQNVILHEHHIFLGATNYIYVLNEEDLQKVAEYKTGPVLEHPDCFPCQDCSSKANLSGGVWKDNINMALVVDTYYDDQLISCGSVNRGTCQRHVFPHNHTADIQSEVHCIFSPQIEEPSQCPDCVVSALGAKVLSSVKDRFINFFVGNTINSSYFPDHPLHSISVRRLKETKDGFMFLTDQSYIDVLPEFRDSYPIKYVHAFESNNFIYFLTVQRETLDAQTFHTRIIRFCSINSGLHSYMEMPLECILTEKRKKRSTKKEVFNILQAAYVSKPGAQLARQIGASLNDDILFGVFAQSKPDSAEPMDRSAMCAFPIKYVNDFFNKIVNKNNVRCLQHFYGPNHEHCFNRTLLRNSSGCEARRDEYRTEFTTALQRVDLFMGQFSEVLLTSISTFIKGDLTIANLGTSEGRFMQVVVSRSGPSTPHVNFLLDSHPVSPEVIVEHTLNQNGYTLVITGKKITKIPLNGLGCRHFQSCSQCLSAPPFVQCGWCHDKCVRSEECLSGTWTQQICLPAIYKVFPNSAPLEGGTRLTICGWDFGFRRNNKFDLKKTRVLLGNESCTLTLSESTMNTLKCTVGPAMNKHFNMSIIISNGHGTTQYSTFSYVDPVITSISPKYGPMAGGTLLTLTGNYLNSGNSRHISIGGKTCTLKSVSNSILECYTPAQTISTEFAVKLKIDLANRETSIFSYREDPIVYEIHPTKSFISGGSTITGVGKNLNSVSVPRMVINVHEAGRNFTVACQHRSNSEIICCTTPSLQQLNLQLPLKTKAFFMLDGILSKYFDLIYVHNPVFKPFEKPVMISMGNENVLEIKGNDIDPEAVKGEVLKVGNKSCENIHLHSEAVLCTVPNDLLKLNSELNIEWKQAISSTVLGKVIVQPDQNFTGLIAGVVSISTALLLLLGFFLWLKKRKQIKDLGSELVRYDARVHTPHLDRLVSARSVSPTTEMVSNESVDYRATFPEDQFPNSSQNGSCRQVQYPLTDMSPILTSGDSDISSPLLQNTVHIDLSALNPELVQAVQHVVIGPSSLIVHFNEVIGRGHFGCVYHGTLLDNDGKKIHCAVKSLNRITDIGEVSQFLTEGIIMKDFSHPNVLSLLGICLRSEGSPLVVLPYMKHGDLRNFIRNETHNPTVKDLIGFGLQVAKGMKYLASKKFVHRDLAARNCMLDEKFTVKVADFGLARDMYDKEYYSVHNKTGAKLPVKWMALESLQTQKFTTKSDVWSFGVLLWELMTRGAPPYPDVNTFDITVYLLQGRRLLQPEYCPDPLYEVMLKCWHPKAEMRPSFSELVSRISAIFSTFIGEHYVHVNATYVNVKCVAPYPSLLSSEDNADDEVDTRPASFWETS
Chain of NLK (Q9UBE8 whole entry): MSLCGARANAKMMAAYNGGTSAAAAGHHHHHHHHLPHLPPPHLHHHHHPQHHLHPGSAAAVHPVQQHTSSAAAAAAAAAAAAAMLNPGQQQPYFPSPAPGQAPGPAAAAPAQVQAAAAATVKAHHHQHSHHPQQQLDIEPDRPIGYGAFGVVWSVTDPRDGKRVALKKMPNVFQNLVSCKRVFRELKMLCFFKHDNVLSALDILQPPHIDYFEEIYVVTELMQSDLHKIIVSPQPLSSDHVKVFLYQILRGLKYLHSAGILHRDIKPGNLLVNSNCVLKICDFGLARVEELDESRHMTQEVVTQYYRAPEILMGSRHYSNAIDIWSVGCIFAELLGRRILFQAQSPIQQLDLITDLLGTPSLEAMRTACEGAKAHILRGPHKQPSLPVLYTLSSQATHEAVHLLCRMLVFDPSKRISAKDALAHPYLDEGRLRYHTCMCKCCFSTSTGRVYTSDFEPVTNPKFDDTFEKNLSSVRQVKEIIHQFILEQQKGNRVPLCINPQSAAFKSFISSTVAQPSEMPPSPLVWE
Chain of CK1DELTA (P48730 whole entry): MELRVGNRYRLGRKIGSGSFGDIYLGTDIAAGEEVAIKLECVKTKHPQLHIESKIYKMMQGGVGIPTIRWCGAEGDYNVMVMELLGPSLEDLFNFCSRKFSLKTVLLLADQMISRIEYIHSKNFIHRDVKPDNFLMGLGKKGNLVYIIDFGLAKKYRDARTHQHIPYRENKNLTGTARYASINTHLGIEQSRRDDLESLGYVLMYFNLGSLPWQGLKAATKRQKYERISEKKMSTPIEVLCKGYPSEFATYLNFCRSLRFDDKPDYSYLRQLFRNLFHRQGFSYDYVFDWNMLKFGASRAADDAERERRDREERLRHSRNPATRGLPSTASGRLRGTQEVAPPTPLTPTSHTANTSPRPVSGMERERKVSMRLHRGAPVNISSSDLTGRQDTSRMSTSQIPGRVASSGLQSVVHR
Chain of CK2 (P68400 whole entry): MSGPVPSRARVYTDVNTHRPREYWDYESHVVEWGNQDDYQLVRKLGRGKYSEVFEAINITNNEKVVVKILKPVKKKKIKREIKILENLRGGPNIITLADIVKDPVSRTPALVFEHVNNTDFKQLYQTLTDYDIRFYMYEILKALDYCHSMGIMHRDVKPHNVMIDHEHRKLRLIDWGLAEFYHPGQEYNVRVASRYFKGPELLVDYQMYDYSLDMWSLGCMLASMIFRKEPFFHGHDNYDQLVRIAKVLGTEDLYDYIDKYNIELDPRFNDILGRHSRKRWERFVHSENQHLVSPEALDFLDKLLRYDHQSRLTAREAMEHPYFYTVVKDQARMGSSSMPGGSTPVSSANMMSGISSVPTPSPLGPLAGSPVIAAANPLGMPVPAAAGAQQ
Chain of CK2 (P67870 whole entry partner): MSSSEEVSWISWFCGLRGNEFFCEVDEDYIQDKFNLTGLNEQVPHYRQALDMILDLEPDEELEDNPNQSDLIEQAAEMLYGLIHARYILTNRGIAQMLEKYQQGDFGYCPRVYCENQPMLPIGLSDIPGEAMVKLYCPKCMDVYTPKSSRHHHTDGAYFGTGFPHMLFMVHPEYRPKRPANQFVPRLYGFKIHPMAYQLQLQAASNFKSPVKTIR

`COC1CN(C(=O)c2ccc3c(N)ncc(-c4ccc(-c5cnn(C)c5)cc4)c3n2)C1` [Compound 51] gave a percentage effect (ARG) of 11%, a percentage effect (ASK1) of 0% and a percentage effect (BMX) of -3%. For the same compound, the percentage effect (CDK1/CYCLINB) was 1%, the percentage effect (CDK6/CYCLIND3) was -10% and the percentage effect (CK1DELTA) was 1%. For the same compound, the percentage effect (CK2) was 5%, the percentage effect (EPHA8) was -9% and the percentage effect (EPHB3) was 2%. It also gave a percentage effect (FGFR2) of -3%, a percentage effect (HCK) of -6% and a percentage effect (IKKALPHA) of -17%. It also gave a percentage effect (JNK2ALPHA2) of -6%, a percentage effect (MARK1) of -5% and a percentage effect (MEK1) of -18%. It also gave a percentage effect (MET) of 22%, a percentage effect (MNK2) of -7% and a percentage effect (MRCKBETA) of -4%. It also gave a percentage effect (MST1) of 9%, a percentage effect (NEK2) of -5% and a percentage effect (NLK) of -3%. For the same compound, the percentage effect (PASK) was -8%, the percentage effect ([…] [1]) was -3% and the percentage effect (PIM-2) was 16%. The percentage effect (PKBBETA) was 13%, the percentage effect (PKCGAMMA) was -1% and the percentage effect (PKCETA) was 5%. The percentage effect (PKD2) was -1%, the percentage effect (PRKX) was 43% and the percentage effect (RSK1) was 13%. The percentage effect (SGK) was 14%, the percentage effect (SGK2) was -46% and the percentage effect (SIK) was -3%. It also gave a percentage effect (SNK) of 8%, a percentage effect (SRC) of 7% and a percentage effect (SRPK2) of 0%. It also gave a percentage effect (TIE2) of -6%, a percentage effect (TSSK1) of 5% and a percentage effect ([…] [2]) of -3%. It also gave a percentage effect (GCK) of -26%, a percentage effect (PIM-3) of -9% and a percentage effect (IR, ACTIVATED) of -15%. The percentage effect (PI3 KINASE (P85A)) was -12% and the percentage effect (PIP4K2A) was -5%.

`COC1CN(C(=O)c2ccc3c(N)ncc(-c4ccc(-c5cnn(C)c5)cc4)c3c2)C1` [Compound 59] showed a percentage effect (ARG) of -7%, a percentage effect (ASK1) of -10% and a percentage effect (BMX) of 1%. For the same compound, the percentage effect (CDK1/CYCLINB) was -5%, the percentage effect (CDK6/CYCLIND3) was -14% and the percentage effect (CK1DELTA) was -10%. For the same compound, the percentage effect (CK2) was 8%, the percentage effect (EPHA8) was -12% and the percentage effect (EPHB3) was -10%. For the same compound, the percentage effect (FGFR2) was -6%, the percentage effect (HCK) was -3% and the percentage effect (IKKALPHA) was 28%. It also gave a percentage effect (JNK2ALPHA2) of 2%, a percentage effect (MARK1) of -14% and a percentage effect (MEK1) of -9%. The percentage effect (MET) was -19%, the percentage effect (MNK2) was -4% and the percentage effect (MRCKBETA) was 13%. For the same compound, the percentage effect (MST1) was -10%, the percentage effect (NEK2) was -9% and the percentage effect (NLK) was -5%. It also gave a percentage effect (PASK) of -4%, a percentage effect ([…] [1]) of 11% and a percentage effect (PIM-2) of 14%. It also gave a percentage effect (PKBBETA) of -24%, a percentage effect (PKCGAMMA) of 9% and a percentage effect (PKCETA) of -4%. The percentage effect (PKD2) was -5%, the percentage effect (PRKX) was 6% and the percentage effect (RSK1) was -14%. It also gave a percentage effect (SGK) of 14%, a percentage effect (SGK2) of 38% and a percentage effect (SIK) of -5%. For the same compound, the percentage effect (SNK) was 3%, the percentage effect (SRC) was -6% and the percentage effect (SRPK2) was -2%. For the same compound, the percentage effect (TIE2) was -18%, the percentage effect (TSSK1) was -14% and the percentage effect ([…] [2]) was 5%. The percentage effect (GCK) was 1%, the percentage effect (PIM-3) was 9% and the percentage effect (IR, ACTIVATED) was -2%. For the same compound, the percentage effect (PI3 KINASE (P85A)) was 0% and the percentage effect (PIP4K2A) was 1%.
